According to the kinase profiling compilation of Christmann-Franck et al. (2016):

Assays:
Assay in all cases: KINOMEscan competition binding
Conditions in all cases: compound 1.0 µM
ACVRL1 (human) = ACVRL1 (human) (UniProt P37023)
ADCK4 (human) = ADCK4 (human) (UniProt Q96D53)
AXL (human) = AXL (human) (UniProt P30530)
BMX (human) = BMX (human) (UniProt P51813)
CAMK1D (human) = CAMK1D (human) (UniProt Q8IU85)
CAMK1G (human) = CAMK1G (human) (UniProt Q96NX5)
CAMK2B (human) = CAMK2B (human) (UniProt Q13554)
CASK (human) = CASK (human) (UniProt O14936)
CDC2L2 (human) = CDC2L2 (human) (UniProt Q9UQ88)
Sequence of CDC2L2 (human) (Q9UQ88 whole entry, looked up): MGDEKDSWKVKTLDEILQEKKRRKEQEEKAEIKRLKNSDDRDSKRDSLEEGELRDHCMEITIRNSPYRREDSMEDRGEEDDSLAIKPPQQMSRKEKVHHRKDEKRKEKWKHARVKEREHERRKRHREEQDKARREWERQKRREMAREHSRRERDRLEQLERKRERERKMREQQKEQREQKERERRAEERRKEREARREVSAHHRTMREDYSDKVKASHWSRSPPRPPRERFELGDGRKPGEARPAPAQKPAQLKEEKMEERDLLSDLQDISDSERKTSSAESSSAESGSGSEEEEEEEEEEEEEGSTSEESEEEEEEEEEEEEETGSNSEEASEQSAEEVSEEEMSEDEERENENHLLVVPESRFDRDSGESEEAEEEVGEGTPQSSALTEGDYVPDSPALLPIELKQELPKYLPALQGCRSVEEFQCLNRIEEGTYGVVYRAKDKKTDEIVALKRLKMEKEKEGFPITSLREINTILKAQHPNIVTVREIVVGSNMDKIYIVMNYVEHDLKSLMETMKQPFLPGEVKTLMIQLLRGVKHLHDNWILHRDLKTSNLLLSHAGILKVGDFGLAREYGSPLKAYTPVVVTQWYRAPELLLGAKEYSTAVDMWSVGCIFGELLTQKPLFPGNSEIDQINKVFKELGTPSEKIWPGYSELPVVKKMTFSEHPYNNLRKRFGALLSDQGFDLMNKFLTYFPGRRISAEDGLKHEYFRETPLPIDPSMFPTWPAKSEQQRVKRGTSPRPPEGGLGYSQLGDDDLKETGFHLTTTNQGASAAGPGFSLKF

CDK19 (human) = CDK19 (human) (UniProt Q9BWU1)
CDK4 CCND3 (human) = CDK4 CCND3 (human) (UniProt P11802+P30281)
CDKL1 (human) = CDKL1 (human) (UniProt Q00532)
Sequence of CDKL1 (human) (Q00532 whole entry, looked up): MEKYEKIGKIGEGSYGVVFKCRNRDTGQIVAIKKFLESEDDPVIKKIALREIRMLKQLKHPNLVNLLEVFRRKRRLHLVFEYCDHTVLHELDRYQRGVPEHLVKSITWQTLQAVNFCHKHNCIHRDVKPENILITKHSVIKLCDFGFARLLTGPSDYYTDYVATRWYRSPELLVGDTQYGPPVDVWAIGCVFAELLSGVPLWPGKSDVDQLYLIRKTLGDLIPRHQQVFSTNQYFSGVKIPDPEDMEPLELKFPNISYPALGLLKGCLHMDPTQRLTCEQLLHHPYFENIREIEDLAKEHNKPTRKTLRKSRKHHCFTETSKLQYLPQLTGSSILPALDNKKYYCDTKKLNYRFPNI

CLK3 (human) = CLK3 (human) (UniProt P49761)
DAPK2 (human) = DAPK2 (human) (UniProt Q9UIK4)
DCLK3 (human) = DCLK3 (human) (UniProt Q9C098)
DDR1 (human) = DDR1 (human) (UniProt Q08345)
[1] = system: EGFR (human), P00533 [752-759 del]
[2] = system: EGFR (human), P00533 [A750P; 747-749 del]
EPHA2 (human) = EPHA2 (human) (UniProt P29317)
FES (human) = FES (human) (UniProt P07332)
[3] = system: FLT3 (human), P36888 [ITD]
FLT4 (human) = FLT4 (human) (UniProt P35916)
GRK7 (human) = GRK7 (human) (UniProt Q8WTQ7)
[4] = system: KIT (human), P10721 [L576P]
[5] = system: KIT (human), P10721 [V559D/V654A]
MAP2K5 (human) = MAP2K5 (human) (UniProt Q13163)
Sequence of MAP2K5 (human) (Q13163 whole entry, looked up): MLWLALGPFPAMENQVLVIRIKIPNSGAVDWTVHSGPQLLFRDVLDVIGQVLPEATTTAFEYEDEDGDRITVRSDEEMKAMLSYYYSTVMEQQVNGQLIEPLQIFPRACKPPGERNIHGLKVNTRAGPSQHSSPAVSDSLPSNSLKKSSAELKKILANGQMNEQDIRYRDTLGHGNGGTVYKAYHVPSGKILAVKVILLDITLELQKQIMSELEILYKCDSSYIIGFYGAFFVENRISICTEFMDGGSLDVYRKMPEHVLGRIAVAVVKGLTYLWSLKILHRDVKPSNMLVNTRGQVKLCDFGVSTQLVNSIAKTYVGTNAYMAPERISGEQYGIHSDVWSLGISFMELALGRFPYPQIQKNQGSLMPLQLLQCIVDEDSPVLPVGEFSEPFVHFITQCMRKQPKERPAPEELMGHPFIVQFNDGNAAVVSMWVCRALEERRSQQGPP

MAP3K3 (human) = MAP3K3 (human) (UniProt Q99759)
Sequence of MAP3K3 (human) (Q99759 whole entry, looked up): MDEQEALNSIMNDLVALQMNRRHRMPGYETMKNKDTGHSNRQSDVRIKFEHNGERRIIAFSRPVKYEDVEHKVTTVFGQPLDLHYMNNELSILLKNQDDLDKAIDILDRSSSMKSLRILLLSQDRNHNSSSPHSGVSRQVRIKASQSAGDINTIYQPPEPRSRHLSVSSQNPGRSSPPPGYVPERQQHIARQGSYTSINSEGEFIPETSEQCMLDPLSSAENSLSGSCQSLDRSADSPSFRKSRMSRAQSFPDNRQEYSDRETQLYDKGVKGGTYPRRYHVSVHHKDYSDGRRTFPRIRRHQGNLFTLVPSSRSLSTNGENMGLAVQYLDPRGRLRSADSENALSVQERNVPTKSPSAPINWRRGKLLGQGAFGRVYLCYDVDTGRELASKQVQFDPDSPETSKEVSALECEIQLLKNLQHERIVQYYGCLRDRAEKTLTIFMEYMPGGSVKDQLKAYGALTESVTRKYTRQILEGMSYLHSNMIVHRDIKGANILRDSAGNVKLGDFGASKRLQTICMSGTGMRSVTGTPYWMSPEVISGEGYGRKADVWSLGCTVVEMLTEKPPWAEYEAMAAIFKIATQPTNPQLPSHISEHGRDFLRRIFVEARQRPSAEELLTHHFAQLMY

MAPK13 (human) = MAPK13 (human) (UniProt O15264)
MAPK14 (human) = MAPK14 (human) (UniProt Q16539)
MYO3A (human) = MYO3A (human) (UniProt Q8NEV4)
OXSR1 (human) = OXSR1 (human) (UniProt O95747)
[6] = system: PIK3CA (human), P42336 [E545A]
PLK2 (human) = PLK2 (human) (UniProt Q9NYY3)
PRKCD (human) = PRKCD (human) (UniProt Q05655)
PRKCH (human) = PRKCH (human) (UniProt P24723)
ROS1 (human) = ROS1 (human) (UniProt P08922)
Sequence of ROS1 (human) (P08922 whole entry, looked up): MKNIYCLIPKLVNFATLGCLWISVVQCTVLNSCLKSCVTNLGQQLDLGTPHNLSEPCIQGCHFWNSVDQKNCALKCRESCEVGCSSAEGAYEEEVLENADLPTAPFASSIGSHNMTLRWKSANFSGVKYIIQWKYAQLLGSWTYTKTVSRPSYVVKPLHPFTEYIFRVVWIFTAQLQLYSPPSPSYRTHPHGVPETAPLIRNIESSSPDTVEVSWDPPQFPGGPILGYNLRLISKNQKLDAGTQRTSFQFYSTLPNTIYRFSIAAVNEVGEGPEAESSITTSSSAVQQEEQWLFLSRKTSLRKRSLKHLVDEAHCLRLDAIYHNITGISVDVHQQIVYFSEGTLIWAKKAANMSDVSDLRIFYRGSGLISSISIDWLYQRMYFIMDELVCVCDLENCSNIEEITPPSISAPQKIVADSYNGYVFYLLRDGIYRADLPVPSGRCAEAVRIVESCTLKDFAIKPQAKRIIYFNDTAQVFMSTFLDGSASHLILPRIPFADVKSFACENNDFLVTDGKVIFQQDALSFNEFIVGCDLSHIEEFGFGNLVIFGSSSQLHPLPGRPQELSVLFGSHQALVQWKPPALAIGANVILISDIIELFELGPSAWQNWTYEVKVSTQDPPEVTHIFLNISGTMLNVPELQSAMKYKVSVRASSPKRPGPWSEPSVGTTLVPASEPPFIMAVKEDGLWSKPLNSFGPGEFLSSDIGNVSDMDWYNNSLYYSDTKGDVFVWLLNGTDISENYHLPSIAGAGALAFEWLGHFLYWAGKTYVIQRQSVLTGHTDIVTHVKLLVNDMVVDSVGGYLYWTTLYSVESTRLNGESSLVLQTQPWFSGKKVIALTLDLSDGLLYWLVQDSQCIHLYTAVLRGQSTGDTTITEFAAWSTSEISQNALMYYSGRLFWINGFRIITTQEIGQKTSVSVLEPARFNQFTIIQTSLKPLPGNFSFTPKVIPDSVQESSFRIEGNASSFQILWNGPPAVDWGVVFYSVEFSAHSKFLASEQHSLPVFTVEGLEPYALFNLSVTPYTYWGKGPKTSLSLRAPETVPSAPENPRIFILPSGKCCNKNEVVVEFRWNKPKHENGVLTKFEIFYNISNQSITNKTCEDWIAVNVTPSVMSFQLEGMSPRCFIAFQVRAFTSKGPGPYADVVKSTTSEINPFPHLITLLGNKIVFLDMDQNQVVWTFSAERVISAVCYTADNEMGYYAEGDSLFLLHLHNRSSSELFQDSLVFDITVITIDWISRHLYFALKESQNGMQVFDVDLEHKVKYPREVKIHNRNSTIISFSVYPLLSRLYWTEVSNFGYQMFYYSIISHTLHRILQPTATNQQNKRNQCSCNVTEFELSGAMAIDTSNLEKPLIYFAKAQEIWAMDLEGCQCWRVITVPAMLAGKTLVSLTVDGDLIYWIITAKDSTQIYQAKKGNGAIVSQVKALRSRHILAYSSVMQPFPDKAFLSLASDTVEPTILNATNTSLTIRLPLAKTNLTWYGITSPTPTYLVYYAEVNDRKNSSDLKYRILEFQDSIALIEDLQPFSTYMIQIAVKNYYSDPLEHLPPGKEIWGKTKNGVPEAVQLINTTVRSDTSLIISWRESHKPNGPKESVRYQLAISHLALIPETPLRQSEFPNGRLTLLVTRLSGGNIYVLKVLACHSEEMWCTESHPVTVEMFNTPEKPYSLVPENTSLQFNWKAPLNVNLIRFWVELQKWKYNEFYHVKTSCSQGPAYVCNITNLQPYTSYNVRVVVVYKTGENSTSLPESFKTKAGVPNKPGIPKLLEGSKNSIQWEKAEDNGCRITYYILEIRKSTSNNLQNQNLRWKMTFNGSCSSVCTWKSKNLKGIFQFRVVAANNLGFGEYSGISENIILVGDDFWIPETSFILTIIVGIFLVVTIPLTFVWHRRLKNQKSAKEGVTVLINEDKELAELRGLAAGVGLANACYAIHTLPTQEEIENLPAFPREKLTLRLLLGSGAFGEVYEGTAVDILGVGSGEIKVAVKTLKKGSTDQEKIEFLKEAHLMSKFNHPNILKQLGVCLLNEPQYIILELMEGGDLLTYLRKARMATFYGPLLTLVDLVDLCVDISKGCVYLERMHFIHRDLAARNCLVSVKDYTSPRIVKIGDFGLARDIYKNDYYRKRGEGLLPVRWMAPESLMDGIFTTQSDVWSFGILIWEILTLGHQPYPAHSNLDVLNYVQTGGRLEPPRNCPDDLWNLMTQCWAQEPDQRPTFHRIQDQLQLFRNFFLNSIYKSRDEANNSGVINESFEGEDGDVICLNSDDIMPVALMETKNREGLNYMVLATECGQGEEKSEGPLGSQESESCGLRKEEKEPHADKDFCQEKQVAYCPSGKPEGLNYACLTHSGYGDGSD

RPS6KA1 KD1 (human) = RPS6KA1 KD1 (human) (UniProt Q15418)
RPS6KA2 KD2 (human) = RPS6KA2 KD2 (human) (UniProt Q15349)
SIK2 (human) = SIK2 (human) (UniProt Q9H0K1)
TAOK1 (human) = TAOK1 (human) (UniProt Q7L7X3)
TLK2 (human) = TLK2 (human) (UniProt Q86UE8)
TRPM6 (human) = TRPM6 (human) (UniProt Q9BX84)
[7] = target: TYK2 JH1 catalytic (human) (UniProt P29597)

Sequence of ADCK4 (human) (Q96D53 whole entry, looked up): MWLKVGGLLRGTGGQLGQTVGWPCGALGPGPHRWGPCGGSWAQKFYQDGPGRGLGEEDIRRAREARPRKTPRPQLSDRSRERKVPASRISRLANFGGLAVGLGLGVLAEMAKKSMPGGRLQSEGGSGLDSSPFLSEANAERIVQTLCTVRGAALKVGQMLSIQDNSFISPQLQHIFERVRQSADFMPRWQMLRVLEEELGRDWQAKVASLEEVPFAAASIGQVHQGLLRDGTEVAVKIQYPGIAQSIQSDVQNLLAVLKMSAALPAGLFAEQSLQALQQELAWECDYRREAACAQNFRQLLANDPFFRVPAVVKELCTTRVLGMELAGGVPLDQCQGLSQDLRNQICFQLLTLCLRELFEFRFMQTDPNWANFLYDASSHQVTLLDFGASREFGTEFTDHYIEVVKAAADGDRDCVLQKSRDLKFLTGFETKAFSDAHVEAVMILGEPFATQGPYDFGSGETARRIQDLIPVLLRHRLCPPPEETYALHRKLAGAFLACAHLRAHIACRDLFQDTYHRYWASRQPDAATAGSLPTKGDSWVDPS

COCCNCCCn1c(C(=O)CF)c(-c2ccc(C)cc2)c2c(N)ncnc21
kinase still bound, per cent of control (ACVRL1 (human)): 100% | kinase still bound, per cent of control (ADCK4 (human)): 93% | kinase still bound, per cent of control (AXL (human)): 81% | kinase still bound, per cent of control (BMX (human)): 98% | kinase still bound, per cent of control (CAMK1D (human)): 100% | kinase still bound, per cent of control (CAMK1G (human)): 97% | kinase still bound, per cent of control (CAMK2B (human)): 97% | kinase still bound, per cent of control (CASK (human)): 62% | kinase still bound, per cent of control (CDC2L2 (human)): 100% | kinase still bound, per cent of control (CDK19 (human)): 98% | kinase still bound, per cent of control (CDK4 CCND3 (human)): 100% | kinase still bound, per cent of control (CDKL1 (human)): 100% | kinase still bound, per cent of control (CLK3 (human)): 79% | kinase still bound, per cent of control (DAPK2 (human)): 97% | kinase still bound, per cent of control (DCLK3 (human)): 100% | kinase still bound, per cent of control (DDR1 (human)): 100% | kinase still bound, per cent of control [1]: 90% | kinase still bound, per cent of control [2]: 67% | kinase still bound, per cent of control (EPHA2 (human)): 100% | kinase still bound, per cent of control (FES (human)): 100% | kinase still bound, per cent of control [3]: 91% | kinase still bound, per cent of control (FLT4 (human)): 98% | kinase still bound, per cent of control (GRK7 (human)): 100% | kinase still bound, per cent of control [4]: 71% | kinase still bound, per cent of control [5]: 94% | kinase still bound, per cent of control (MAP2K5 (human)): 46% | kinase still bound, per cent of control (MAP3K3 (human)): 96% | kinase still bound, per cent of control (MAPK13 (human)): 89% | kinase still bound, per cent of control (MAPK14 (human)): 96% | kinase still bound, per cent of control (MYO3A (human)): 100% | kinase still bound, per cent of control (OXSR1 (human)): 100% | kinase still bound, per cent of control [6]: 100% | kinase still bound, per cent of control (PLK2 (human)): 96% | kinase still bound, per cent of control (PRKCD (human)): 90% | kinase still bound, per cent of control (PRKCH (human)): 100% | kinase still bound, per cent of control (ROS1 (human)): 100% | kinase still bound, per cent of control (RPS6KA1 KD1 (human)): 78% | kinase still bound, per cent of control (RPS6KA2 KD2 (human)): 95% | kinase still bound, per cent of control (SIK2 (human)): 82% | kinase still bound, per cent of control (TAOK1 (human)): 100% | kinase still bound, per cent of control (TLK2 (human)): 95% | kinase still bound, per cent of control (TRPM6 (human)): 81% | kinase still bound, per cent of control [7]: 100%
